Values quoted from earlier work, collected in patent US12133844B2, “Methods of treating epithelioid cell tumors” (Abraxis BioScience, LLC, priority 2015, dated 2024).
Where two headings read alike, the source gives them in different places.

Key:
mTORC1 [1] = target: T1, mTORC1 (Homo sapiens, UniProt P42345); set-up: endogenous in cells; host or cells: HUVEC
[2] = in vivo
HSA = HSA (Homo sapiens, UniProt P02768)
mTORC1 [3] = target: T1, mTORC1; set-up: endogenous in cells; conditions: HEK293 cells, 0.2 μM-5 μM
mTORC1 [4] = target: T1, mTORC1; set-up: endogenous in cells; host or cells: HUVEC; conditions: HUVEC cells, 10 nM-1 μM

Sequence of HSA (P02768 25-609): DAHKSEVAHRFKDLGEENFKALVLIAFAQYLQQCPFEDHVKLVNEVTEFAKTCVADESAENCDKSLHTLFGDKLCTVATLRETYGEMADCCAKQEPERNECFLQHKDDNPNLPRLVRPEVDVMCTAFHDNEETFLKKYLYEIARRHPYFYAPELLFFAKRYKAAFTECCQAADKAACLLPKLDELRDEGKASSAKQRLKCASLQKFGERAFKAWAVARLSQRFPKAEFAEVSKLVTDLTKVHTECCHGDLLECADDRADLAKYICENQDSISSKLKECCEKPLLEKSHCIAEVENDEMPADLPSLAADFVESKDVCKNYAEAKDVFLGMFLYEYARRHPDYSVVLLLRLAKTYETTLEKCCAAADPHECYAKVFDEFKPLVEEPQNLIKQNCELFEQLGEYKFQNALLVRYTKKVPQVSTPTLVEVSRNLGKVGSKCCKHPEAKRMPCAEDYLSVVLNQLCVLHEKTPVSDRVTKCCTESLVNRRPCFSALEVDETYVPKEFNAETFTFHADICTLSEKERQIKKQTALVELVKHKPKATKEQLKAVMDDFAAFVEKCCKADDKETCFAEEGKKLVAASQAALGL

COc1ccc(-c2ccc3c(N4CCOCC4)nc(N4C[C@@H](C)O[C@@H](C)C4)nc3n2)cc1CO [KU-0063794]
inhibition of phosphorylation of mTORC1 at Ser2448 (mTORC1 [1]): dose-dependent and time-dependent

COc1ccc(COc2cc3oc(=O)c4cc(C(C)O)ccc4c3cc2OC)cc1 (stereo not shown) [Palomid 529]
brain penetration [2]: good brain penetration | affinity for ABCB1/ABCG2 (ABCB1/ABCG2): lacks affinity

CO[C@H]1C[C@@H]2CC[C@@H](C)[C@@](O)(O2)C(=O)C(=O)N2CCCC[C@H]2C(=O)O[C@H]([C@H](C)C[C@@H]2CC[C@@H](O)[C@H](OC)C2)CC(=O)[C@H](C)/C=C(\C)[C@@H](O)[C@@H](OC)C(=O)[C@H](C)C[C@H](C)/C=C/C=C/C=C/1C [Sirolimus, sirolimus]
binding to HSA (HSA): shown to bind HSA

CC(=O)O[C@@]12CO[C@@H]1C[C@H](O)[C@@]1(C)C(=O)[C@H](O)C3=C(C)[C@@H](OC(=O)[C@H](O)[C@@H](NC(=O)OC(C)(C)C)c4ccccc4)C[C@@](O)([C@@H](OC(=O)c4ccccc4)[C@H]21)C3(C)C [docetaxel]
binding to human plasma proteins (human plasma proteins): shown to bind

WYE-354
inhibition of mTORC1 (mTORC1 [3]): inhibits mTORC1 | inhibition of mTORC1 (mTORC1 [4]): inhibits mTORC1
